The structures appear in SMILES notation. Like-named read-outs stand apart in the source and are kept apart here.

Here are results for 33 compounds from patent publication US8324390B2, “Tetrazole-substituted anthranilamides as pesticides” (Bayer CropScience AG, priority 2008, dated 2012).

Series [1] is described as follows: log P determination by HPLC (EEC Directive 79/831 Annex V.A8). Type of series: physicochemical. The method, then: The measurements were carried out using an Agilent 1100 LC system with a 50*4.6 Zorbax Eclipse C18 1.8 μm column (oven temperature 55° C., flow rate 2.0 ml/min).
The following mobile phases were used:
Mobile phase A: acetonitrile+1000 μl of formic acid/l
Mobile phase B: Millipore water+900 μl of formic acid/l

For series [2], the system named is caterpillars of the armyworm (Spodoptera frugiperda). As to the kind of experiment: Spodoptera frugiperda test (SPODFR spray treatment). Format: in vivo. To be noted: Spodoptera frugiperda, foliar, read-out: effect in % (caterpillars killed). The text has this: Solvent: 78.0 parts by weight of acetone
For series [3], the system named is larvae of the mustard beetle (Phaedon cochleariae). As to the kind of experiment: Phaedon test (PHAECO spray treatment). The conditions noted are these: Phaedon cochleariae, in Brassica rapa, foliar, read-out: effect in % (beetle larvae killed).
[4] abbreviates: by HPLC according to EEC Directive 79/831 Annex V.A8, read-out: log P.
[5] abbreviates: reversed-phase HPLC, Zorbax Eclipse C18 column, by HPLC according to EEC Directive 79/831 Annex V.A8, read-out: log P.
The mark [6] stands for this setting: application rate 100 g/ha, maize leaf discs.
Setting [7] is: reversed-phase HPLC, Zorbax Eclipse C18 column, determined by HPLC according to EEC Directive 79/831 Annex V.A8, read-out: log P.

In series [1] (log P), `Cc1cc(Cl)cc(C(=O)NC(C)C)c1NC(=O)c1cc(Cn2nnc(C(F)F)n2)nn1-c1ncccc1Cl` [Example 231] showed a chromatographic logP of 2.95. The pest or weed control at 100 g/ha in series [2] (in Zea mays) and in series [3] was no less than 80% throughout.
Regarding `CNC(=O)c1cc(Cl)cc(Cl)c1NC(=O)c1cc(Cn2nnc(C(F)F)n2)nn1-c1ncccc1Cl` [Example 282], in series [1] (log P), the chromatographic logP was 2.48. The pest or weed control at 100 g/ha in series [2] (in Zea mays) and in series [3] was no less than 80% in each case.
On to `CNC(=O)c1cc(I)cc(C)c1NC(=O)c1cc(Cn2nnc(C(F)(F)C(F)(F)C(F)(F)F)n2)nn1-c1ncccc1Cl` [Example 112], for which the chromatographic logP in series [1] (setting [4]) worked out at 3.99. Also, the pest or weed control at 100 g/ha in series [2] (in Zea mays) and in series [3] was no less than 80% throughout.
Regarding `Cc1cc(C#N)cc(C(=O)NC(C)(C)C)c1NC(=O)c1cc(Cn2nnc(C(F)(F)F)n2)nn1-c1ccccc1Cl` [Example 343], the chromatographic logP in series [1] (setting [5]) was 3.92. Besides, the pest or weed control at 100 g/ha in series [2] (setting [6]) and in series [3] was no less than 80% each time.
In turn, `Cc1cc(C#N)cc(C(=O)NC(C)(C)C)c1NC(=O)c1cc(C(C)n2nnc(C(F)(F)F)n2)nn1-c1ncccc1Cl` (stereo not drawn) [Example 436] yielded a chromatographic logP in series [1] (log P) of 3.7. In addition, the pest or weed control at 100 g/ha in series [2] (in Zea mays) and in series [3] was no less than 80% in each case.
For `Cc1cc(C#N)cc(C(=O)NCC(C)(C)CF)c1NC(=O)c1cc(Cn2nnc(C(F)(F)F)n2)nn1-c1ncccc1Cl` [Example 116], in series [1] (log P), the chromatographic logP was 3.35. Further, the pest or weed control at 100 g/ha in series [2] (in Zea mays) and in series [3] was no less than 80% each time.
As to `Cc1cc(C#N)cc(C(=O)NCC(F)F)c1NC(=O)c1cc(Cn2nnnc2C(F)(F)F)nn1-c1ncccc1Cl` [Example 207], the chromatographic logP in series [1] (log P) was 2.57. The pest or weed control at 100 g/ha in series [2] (in Zea mays) and in series [3] was no less than 80% each time.
As for `CNC(=O)c1cc(Cl)cc(C)c1NC(=O)c1cc(Cn2nnc(C(F)(F)F)n2)nn1-c1ncccc1Br` [Example 331], the chromatographic logP in series [1] (setting [5]) worked out at 3.01. Moreover, the pest or weed control at 100 g/ha in series [2] (setting [6]) and in series [3] was no less than 80% each time.
In series [1] (log P), `O=C(NC1CC1)c1cc(Cl)cc(Cl)c1NC(=O)c1cc(Cn2nnnc2C(F)(F)C(F)(F)F)nn1-c1ncccc1Cl` [Example 204] returned a chromatographic logP of 3.24. In addition, the pest or weed control at 100 g/ha in series [2] (in Zea mays) and in series [3] was no less than 80% each time.
For `Cc1cc(C#N)cc(C(=O)NC(C)C2CC2)c1NC(=O)c1cc(Cn2nnnc2C(F)(C(F)(F)F)C(F)(F)F)nn1-c1ncccc1Cl` (stereo not drawn) [Example 499], in series [1] (setting [7]), the chromatographic logP is 3.8. In addition, the pest or weed control at 100 g/ha in series [2] (setting [6]) and in series [3] was no less than 80% in each case.
With `Cc1cc(I)cc(C(=O)NC(C)C)c1NC(=O)c1cc(Cn2nnc(C(F)(C(F)(F)F)C(F)(F)F)n2)nn1-c1ncccc1Cl` [Example 381], the chromatographic logP in series [1] (log P) worked out at 4.44. Moreover, the pest or weed control at 100 g/ha in series [2] (in Zea mays) and in series [3] was no less than 80% in each case.
Regarding `Cc1cc(I)cc(C(=O)NC(C)C2CC2)c1NC(=O)c1cc(Cn2nnc(C(F)(C(F)(F)F)C(F)(F)F)n2)nn1-c1ncccc1Cl` (stereo not drawn) [Example 378], in series [1] (setting [5]), the chromatographic logP came to 4.74. The pest or weed control at 100 g/ha in series [2] (setting [6]) and in series [3] was no less than 80% throughout.
`Cc1cc(I)cc(C(=O)NCC2CC2)c1NC(=O)c1cc(Cn2nnc(C(F)(C(F)(F)F)C(F)(F)F)n2)nn1-c1ncccc1Cl` [Example 383]: in series [1] (setting [5]), the chromatographic logP turned out to be 4.51. For the same compound, the pest or weed control at 100 g/ha in series [2] (setting [6]) and in series [3] was no less than 80% in each case.
Consider `Cc1cc(C#N)cc(C(=O)NC(C)C)c1NC(=O)c1cc(Cn2nnnc2C(F)(F)C(F)(F)F)nn1-c1ncccc1Cl` [Example 202], for which, in series [1] (log P), the chromatographic logP came to 3.14. The pest or weed control at 100 g/ha in series [2] (in Zea mays) and in series [3] was no less than 80% throughout.
For `Cc1cc(Cl)cc(C(N)=O)c1NC(=O)c1cc(Cn2nnc(C(F)(F)C(F)(F)F)n2)nn1-c1ncccc1Cl` [Example 130], the chromatographic logP in series [1] (log P) was found to be 3.15. Besides, the pest or weed control at 100 g/ha in series [2] (in Zea mays) and in series [3] was no less than 80% in each case.
`CNC(=O)c1cc(Cl)cc(C)c1NC(=O)c1cc(Cn2nnc(C(F)(C(F)(F)F)C(F)(F)F)n2)nn1-c1ncccc1Cl` [Example 357] registered a chromatographic logP in series [1] (log P) of 3.72. For the same compound, the pest or weed control at 100 g/ha in series [2] (in Zea mays) and in series [3] was no less than 80% throughout.
`Cc1cc(I)cc(C(=O)NC(C)C)c1NC(=O)c1cc(Cn2nnc(C(F)(F)C(F)(F)C(F)(F)F)n2)nn1-c1ncccc1Cl` [Example 109]: the chromatographic logP in series [1] (setting [4]) came out at 4.48. The pest or weed control at 100 g/ha in series [2] (in Zea mays) and in series [3] was no less than 80% throughout.
As for `Cc1cc(C#N)cc(C(=O)NC(C)(C)C)c1NC(=O)c1cc(Cn2nnc(C(C)(C)C)n2)nn1-c1ncccc1Cl` [Example 100], the chromatographic logP in series [1] (log P) is 3.44. The pest or weed control at 100 g/ha in series [2] (in Zea mays) and in series [3] was no less than 80% in each case.
With `CC(C)NC(=O)c1cc(Cl)cc(Cl)c1NC(=O)c1cc(Cn2nnc(C(F)(F)F)n2)nn1-c1ncccc1Cl` [Example 61], in series [1] (log P), the chromatographic logP is 3.41. Further, the pest or weed control at 100 g/ha in series [2] (in Zea mays) and in series [3] was no less than 80% throughout.
With `Cc1cc(C#N)cc(C(=O)NC2CC2)c1NC(=O)c1cc(Cn2nnc(C(F)(F)F)n2)nn1-c1ncccc1C(F)(F)F` [Example 233], the chromatographic logP in series [1] (setting [5]) turned out to be 3.07. Further, the pest or weed control at 100 g/ha in series [2] (setting [6]) and in series [3] was no less than 80% throughout.
Regarding `O=C(NC1CC1)c1cc(Cl)cc(Cl)c1NC(=O)c1cc(Cn2nnnc2C(F)F)nn1-c1ncccc1Cl` [Example 469], in series [1] (log P), the chromatographic logP is 2.44. For the same compound, the pest or weed control at 100 g/ha in series [2] (in Zea mays) and in series [3] was no less than 80% each time.
In the case of `CCNC(=O)c1cc(C#N)cc(C)c1NC(=O)c1cc(Cn2nnc(C(F)(F)F)n2)nn1-c1ncccc1C(F)(F)F` [Example 234], the chromatographic logP in series [1] (setting [5]) stood at 3.07. Besides, the pest or weed control at 100 g/ha in series [2] (setting [6]) and in series [3] was no less than 80% each time.
Turning to `O=C(NC1CCC1)c1cc(Cl)cc(Cl)c1NC(=O)c1cc(Cn2nnc(C(F)F)n2)nn1-c1ncccc1Cl` [Example 291], the chromatographic logP in series [1] (log P) was 3.06. Besides, the pest or weed control at 100 g/ha in series [2] (in Zea mays) and in series [3] was no less than 80% throughout.
Regarding `CCC(COC(F)(F)F)NC(=O)c1cc(C#N)cc(C)c1NC(=O)c1cc(Cn2nnc(C(F)(F)F)n2)nn1-c1ncccc1Cl` (stereo not drawn) [Example 117], the chromatographic logP in series [1] (setting [5]) was 3.74. The pest or weed control at 100 g/ha in series [2] (setting [6]) and in series [3] was no less than 80% in each case.
In series [1] (log P), `Cc1cc(Br)cc(C(=O)NC(C)C)c1NC(=O)c1cc(Cn2nnc(C(F)(F)C(F)(F)F)n2)nn1-c1ncccc1Cl` [Example 146] yielded a chromatographic logP of 3.95. The pest or weed control at 100 g/ha in series [2] (in Zea mays) and in series [3] was no less than 80% each time.
`CNC(=O)c1cc(C#N)cc(C)c1NC(=O)c1cc(Cn2nnnc2C(F)(F)F)nn1-c1ccccc1C(F)(F)F` [Example 490]: the chromatographic logP in series [1] (setting [7]) came out at 2.91. Also, the pest or weed control at 100 g/ha in series [2] (setting [6]) and in series [3] was no less than 80% each time.
On to `CCNC(=O)c1cc(I)cc(C)c1NC(=O)c1cc(Cn2nnc(C(F)(C(F)(F)F)C(F)(F)F)n2)nn1-c1ncccc1Cl` [Example 380], for which the chromatographic logP in series [1] (log P) was determined as 4.2. The pest or weed control at 100 g/ha in series [2] (in Zea mays) and in series [3] was no less than 80% in each case.
Consider `COCCNC(=O)c1cc(C#N)cc(C)c1NC(=O)c1cc(Cn2nnc(C(F)(C(F)(F)F)C(F)(F)F)n2)nn1-c1ncccc1Cl` [Example 395], for which the chromatographic logP in series [1] (setting [5]) was 3.48. Also, the pest or weed control at 100 g/ha in series [2] (setting [6]) and in series [3] was no less than 80% in each case.
Regarding `Cc1cc(Cl)cc(C(=O)NC(C)(C)C)c1NC(=O)c1cc(Cn2nnc(C(F)(F)F)n2)nn1-c1ccccc1` [Example 403], the chromatographic logP in series [1] (setting [7]) was 4.14. For the same compound, the pest or weed control at 100 g/ha in series [2] (setting [6]) and in series [3] was no less than 80% in each case.
As for `Cc1cc(Br)cc(C(=O)NC(C)(C)C)c1NC(=O)c1cc(Cn2nnc(C(F)(F)F)n2)nn1-c1ncccc1C(F)(F)F` [Example 245], in series [1] (setting [5]), the chromatographic logP came out at 4.13. Moreover, the pest or weed control at 100 g/ha in series [2] (setting [6]) and in series [3] was no less than 80% in each case.
For `Cc1cc(I)cc(C(N)=O)c1NC(=O)c1cc(Cn2nnc(C(F)(F)C(F)(F)C(F)(F)F)n2)nn1-c1ncccc1Cl` [Example 110], in series [1] (setting [4]), the chromatographic logP turned out to be 3.7. Also, the pest or weed control at 100 g/ha in series [2] (in Zea mays) and in series [3] was no less than 80% each time.
As for `CNC(=O)c1cc(Cl)cc(C)c1NC(=O)c1cc(Cn2nnc(C(F)(F)F)n2)nn1-c1ccc(Cl)cc1Cl` [Example 239], the chromatographic logP in series [1] (setting [5]) is 3.97. The pest or weed control at 100 g/ha in series [2] (setting [6]) and in series [3] was no less than 80% each time.
With `Cc1cc(C#N)cc(C(=O)NCC2CC2)c1NC(=O)c1cc(Cn2nnc(C(F)(C(F)(F)F)C(F)(F)F)n2)nn1-c1ncccc1Cl` [Example 373], in series [1] (setting [5]), the chromatographic logP stood at 3.84. The pest or weed control at 100 g/ha in series [2] (setting [6]) and in series [3] was no less than 80% each time.
